The data set relates to human RBC's. Put plainly: Binding of compound to RBC substrate and stability of the surface-bound moiety, anti-acridine antibody staining by flow cytometry (MFI). It is filed as cell-based. The note with it: at 37° C.; 0.2 mM compound, 2.0 mM GSH, overnight; mAb and polyAb staining. On the procedure:
A study was performed to assess binding to RBC substrate by the compound 5-220, which is a non-frangible analog of S-303. This study also compared the stability of the surface bound moiety of the 5-220 compound to the stability of a similarly bound frangible S-303. More specifically, glutathione (GSH) quencher and the 5-220 compound were added to human RBC's substrate at concentrations of 2.0 mM and 0.2 mM, respectively, and then incubated overnight at 37° C. or 4° C. For comparison, GSH quencher and the frangible S-303 compound were similarly added to human RBC's at concentrations of 2.0 mM and 0.2 mM, respectively, and incubated overnight at 37° C. or 4° C. Both the non-frangible 5-220 and frangible S-303 compounds comprise an acridine moiety as part of their structures. Following incubation, the GSH/S-220 and GSH/S-303 treated RBC's were stained with either a mouse monoclonal (mAb) or rabbit polyclonal (polyAb) anti-acridine antibody (also at 4° C. or 37° C.), and the samples analyzed for antibody binding by flow cytometry using standard methods (quantitated as MFI). Both the mAb and polyAb anti-acridine antibodies were generated using the compound 5-197 for immunization.
On the technique in general: A flow cytometer gives signals particle by particle.

These results are taken from patent publication US12282015B2, “Systems and methods for testing and screening using compound bound substrates” (Cerus Corporation, priority 2016, dated 2025).

Structures are written as SMILES.

Turning to `O=C(CCNc1c2ccccc2nc2ccccc12)OCCN(CCCl)CCCl` [S-303, β-alanine, N-(acridin-9-yl), 2-[bis(2-chloroethyl)amino]ethyl ester], the “stability of binding to RBC's” value is given as “less stable than 5-220 binding to RBC's”.
